Experimental data from patent US8022095B2, “Methods of treating headaches using 5-HT agonists in combination with long-acting NSAIDs” (Pozen, Inc., priority 1996, dated 2011).
Read-outs that look alike come from different tables or passages of the source.

How the values were obtained:
[1] = cited from earlier work; for time of peak plasma concentration after oral administration: oral dosing; for half-life: pharmacokinetic / plasma half-life; for lead time to peak plasma levels: list follows the words 'intramuscular routes will generally have shorter lead times to peak plasma levels'
COX-2 = molecular target: T1, COX-2 (Homo sapiens, UniProt P35354); settings: reported (Feldman 2000; Sengupta 1999); cited from earlier work
T1 sequence (P35354 18-604): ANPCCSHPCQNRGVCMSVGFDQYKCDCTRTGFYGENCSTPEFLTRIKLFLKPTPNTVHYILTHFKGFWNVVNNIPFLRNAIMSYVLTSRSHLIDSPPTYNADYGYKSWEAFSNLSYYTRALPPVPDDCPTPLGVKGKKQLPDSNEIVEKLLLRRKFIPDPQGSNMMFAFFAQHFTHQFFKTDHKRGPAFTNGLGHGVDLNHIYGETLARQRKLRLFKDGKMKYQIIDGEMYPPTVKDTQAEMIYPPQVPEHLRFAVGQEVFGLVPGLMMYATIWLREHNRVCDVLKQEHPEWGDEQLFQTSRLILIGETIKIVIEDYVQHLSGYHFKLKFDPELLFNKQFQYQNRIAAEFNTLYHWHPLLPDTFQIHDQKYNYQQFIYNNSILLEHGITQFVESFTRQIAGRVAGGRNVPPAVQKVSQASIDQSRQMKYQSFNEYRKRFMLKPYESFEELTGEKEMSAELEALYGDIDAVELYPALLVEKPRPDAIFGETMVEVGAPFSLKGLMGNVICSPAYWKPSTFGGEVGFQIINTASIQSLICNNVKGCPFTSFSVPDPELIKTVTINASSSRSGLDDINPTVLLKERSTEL

migraine attacks = test: Open-label, randomized out-patient study, 16 migraine patients with high relapse rate, two successive migraine attacks; type: in vivo, human
Procedure: Headache pain was assessed by the patients on a 4-point scale (no pain, mild pain, moderate pain, or severe pain). Each patient was treated for two migraine attacks of moderate or severe intensity at baseline and pain scores were recorded every 30 minutes for the first two hours following dosing and at 3, 4, 6, 12 and 24 hours post-dose. “Relapse” was defined to occur in those patients who responded with an adequate reduction in headache pain (moderate or severe at baseline, reduced to no pain or mild pain) at 2 hours after administration and, in whom, over the next 22 hours either: (a) headache pain returned to moderate or severe intensity; or (b) “rescue medication” was required to treat the recurrent headache pain.

migraine attack = system: migraine attack
Procedure: Headache relief at two hours was determined in a manner identical to that described above, but the relapse and sustained response rates were calculated based solely on a return of moderate or severe headache pain (i.e., no “rescue medication” protocol was used as a separate indicator of relapse).

migraine = test: Comparison of MT 400, triptan alone, NSAID alone and placebo in migraine patients; type: in vivo, human; settings: for % with nausea / % with phonophobia / % with photophobia / Number with nausea / Number with phonophobia / Number with photophobia: at 2 hours; for Number with nausea / Number with phonophobia / Number with photophobia / Sustained Response (Sustained Pain Response), number of subjects / Sustained Pain Free responders, number of subjects: N = 250 / 229 / 247; for patients with improvement from moderate or severe pain at baseline to mild or no pain: at two hours; for Sustained Response (Sustained Pain Response), percentage of subjects: initial pain response without return of pain for 24 hours after dosing; for Sustained Response (Sustained Pain Response), number of subjects: initial pain response without return of pain for 24 hours; for Sustained Pain Free responders, number of subjects: pain score 0 at 2 hours and from 2 to 24 hours without rescue; for therapeutic gain, Sustained Pain Free / therapeutic gain over placebo, sustained response / therapeutic gain over placebo, pain response: response rate minus placebo response; for therapeutic gain over placebo, sustained response: 24 hours; for therapeutic gain over placebo, pain response: pain response at two hours
Procedure: In these experiments, a comparison was made between: patients administered triptan alone; patients administered NSAID alone; patients administered a combination of triptan and NSAID (“MT400”); and, in some cases, patients administered a placebo.
Sustained response was evaluated based upon the number of patients that experience an initial pain response without a return of pain for the 24 hours after dosing.
The most desirable outcome for the treatment of migraine is that the pain be eliminated quickly and not return. This outcome measure is termed Sustained Pain Free. Responders are defined as patients having a pain score of 0 at 2 hours and nothing more than 0 from 2 to 24 hours post dose without the need for rescue.
As migraine is a pathological complex characterized by unilateral headache, often accompanied by associated symptoms of nausea, photophobia and phonophobia, efficacy against these other parameters is important in evaluating the efficacy of a drug candidate.

CN1C(C(=O)Nc2ccccn2)=C(O)c2sc(Cl)cc2S1(=O)=O [lornoxicam]
time of peak plasma concentration after oral administration [1]: approximately two
half-life [1]: about 4 hours
half-life ([1]; listed as Lornoxicam): approximately 4 hours

CN1C(C(=O)Nc2ccccn2)=C(O)c2ccccc2S1(=O)=O [piroxicam]
time of dosing until steady state plasma concentrations are reached ([1]; in vivo): 7 to 12 days

O=C(c1ccccc1)c1ccc2n1CCC2C(=O)O (stereo not shown) [ketorolac]
half-life [1]: 8 to 9 h

CCc1cccc2c3c([nH]c12)C(CC)(CC(=O)O)OCC3 (stereo not shown) [etodolac]
specificity for COX-2 (COX-2): highly specific for COX-2
half-life [1]: about 7 hours

CNS(=O)(=O)Cc1ccc2[nH]cc(CCN(C)C)c2c1 [sumatriptan]
24 hour sustained response (migraine attacks; % of 16 patients, relapse criteria including rescue medication): 44%
number of patients with 24 hour sustained response (migraine attacks; of 16 patients, relapse criteria including rescue medication): seven
relapse rate (migraine attacks; re-analysed, based solely on return of moderate or severe headache pain): 40%
relapse rate of responding patients (migraine attacks; relapse = return of moderate or severe pain or rescue medication within 22 hours after the 2 hour response): 46%
sustained response rate (migraine attacks; responds initially and no relapse in twenty-four hours, criteria of the second study): 56%
peak serum concentration ([1]; oral doses of about 1-300 mg): 1 to 300 ng/mL
peak serum concentration ([1]; subcutaneous injections of about 1 to 8 mg): 1 to 150 ng/mL

Cc1cccc(Nc2ccccc2C(=O)O)c1C [mefenamic acid]
specificity for COX-2 (COX-2): highly specific for COX-2
half-life [1]: up to 4 hours

COc1ccc2cc(CCC(C)=O)ccc2c1 [nabumetone]
lead time to peak plasma levels [1]: 2.5 to 4 h
half-life [1]: 22 to 30 h

O=C(O)CCc1nc(-c2ccccc2)c(-c2ccccc2)o1 [oxaprozin]
half-life [1]: 42 to 50 h
half-life ([1]; listed as Oxaprozin): 42 to 50 h

COc1ccc2cc([C@H](C)C(=O)O)ccc2c1 [naproxen]
sustained response rate (migraine attack; responds initially and no relapse in twenty-four hours): 46%
% with nausea (migraine): (31.2%)
% with phonophobia (migraine): (47.8%)
% with photophobia (migraine): (57.5%)
Number with nausea (migraine): 77
Number with phonophobia (migraine): 118
Number with photophobia (migraine): 142
patients with improvement from moderate or severe pain at baseline to mild or no pain (migraine): 46%
Sustained Response (Sustained Pain Response), percentage of subjects (migraine): 24.7%
Sustained Response (Sustained Pain Response), percentage of subjects (migraine; listed as Naproxen): (24.7%)
Sustained Response (Sustained Pain Response), number of subjects (migraine): 61
Sustained Pain Free responders, number of subjects (migraine): 29
Sustained Pain Free responders, percentage of subjects (migraine; pain score 0 at 2 hours and nothing more than 0 from 2 to 24 hours post dose without rescue): (11.7%)
therapeutic gain, Sustained Pain Free (migraine): 6.7%
therapeutic gain over placebo, sustained response (migraine): 8%
therapeutic gain over placebo, pain response (migraine): 19%

COc1ccc2cc([C@H](C)C(=O)O)ccc2c1 [naproxen sodium]
relapse rate (migraine attack; 500 mg naproxen sodium alone, based solely on return of moderate or severe headache pain): 26%

Cc1onc(-c2ccccc2)c1-c1ccc(S(N)(=O)=O)cc1 [valdecoxib]
time of peak plasma concentration after oral administration [1]: 2 to 3 h
half-life [1]: 8 to 11 h

Cc1ccc(-c2cc(C(F)(F)F)nn2-c2ccc(S(N)(=O)=O)cc2)cc1 [Celecoxib, celecoxib]
time of peak plasma concentration after oral administration [1]: approximately 3 hours
half-life [1]: approximately 11 hours

CS(=O)(=O)c1ccc(C2=C(c3ccccc3)C(=O)OC2)cc1 [rofecoxib]
time of peak plasma concentration after oral administration [1]: 2 to 3 h
half-life [1]: about 17 hours

COc1ccc2c(c1)c(CC(=O)O)c(C)n2C(=O)c1ccc(Cl)cc1 [indomethacin]
lead time to peak plasma levels [1]: 1 to 4 h

CC(C(=O)O)c1ccc(-c2ccccc2)c(F)c1 (stereo not shown) [flurbiprofen]
half-life [1]: about 6 hours

CNS(=O)(=O)Cc1ccc2[nH]cc(CCN(C)C)c2c1 [Imitrex, sumatriptan succinate]
% with nausea (migraine): (31.9%)
% with phonophobia (migraine): (44.5%)
% with photophobia (migraine): (50.2%)
Number with nausea (migraine): 73
Number with phonophobia (migraine): 102
Number with photophobia (migraine): 115
patients with improvement from moderate or severe pain at baseline to mild or no pain (migraine): 49%
Sustained Response (Sustained Pain Response), number of subjects (migraine): 66
Sustained Pain Free responders, number of subjects (migraine): 25
therapeutic gain, Sustained Pain Free (migraine): 5.9%
therapeutic gain over placebo, sustained response (migraine): 12%
therapeutic gain over placebo, pain response (migraine): 22%

Cc1ccc(Cl)c(Nc2ccccc2C(=O)O)c1Cl [meclofenamate, Meclofenamate sodium]
lead time to peak plasma levels [1]: 0.5 to 1 h
